Measured values published in patent US12377104B1, “Methods for treating a fatty liver disease” (Madrigal Pharmaceuticals, Inc., priority 2024, dated 2025).

What was measured:
[1] = MAESTRO-NASH: thyroid hormones at week 52; type: in vivo, human
NASH liver fibrosis = assay: MAESTRO-NASH: qFibrosis assessment of biopsies; type: in vivo, human; settings: Week 52 biopsy, compared with placebo
Source text: Fibrosis stage predicts clinical outcomes in NASH/metabolic-associated steatohepatitis (MASH), with liver biopsies as the regulatory standard. Ordinal fibrosis staging on stained slides may limit the ability to visualize dynamic fibrosis features throughout the liver lobule. qFibrosis, an AI-driven fibrosis assessment methodology that utilizes laser driven (SHG) collagen detection on unstained biopsy slides, has identified 30 specific fibrotic features on NASH liver biopsies that may be predictive of liver-related clinical outcomes, progression to cirrhosis and decompensated cirrhosis based on the SteatoSITE population. Non-invasive measures such as baseline MRE or FibroScan VCTE, ELF, and other non-invasive fibrosis markers also predict progression to cirrhosis and decompensated cirrhosis. SteatoSITE contains integrated clinical and pathological data from 940 cases across the NAFLD spectrum with outcome data from electronic health record and pathologist-assigned fibrosis stage and RNA on baseline biopsy. […] Baseline and Week 52 biopsies from MAESTRO-NASH were analyzed for 30 qFibrosis features identified by SteatoSITE that are associated with progression of NASH fibrosis to liver decompensation, and six features with the strongest correlations between baseline pathologist scoring and non-invasive tests were identified.

Structure (SMILES): CC(C)c1cc(Oc2c(Cl)cc(-n3nc(C#N)c(=O)[nH]c3=O)cc2Cl)n[nH]c1=O [Resmetirom, 2-(3,5-dichloro-4-((5-isopropyl-6-oxo-1,6-dihydropyridazin-3-yl)oxy)phenyl)-3,5-dioxo-2,3,4,5-tetrahydro-1,2,4-triazine-6-carbonitrile]
- FT3 (not on thyroxine), LS mean CFB ([1]; 80 mg, Week 52): -0.01 ng/L
- FT3 (not on thyroxine), LS mean difference from PBO (CFB) ([1]; 80 mg, Week 52): 0.01 ng/L
- FT3 (thyroxine-treated), LS mean CFB ([1]; 80 mg, Week 52): 0.04 ng/L
- FT3 (thyroxine-treated), LS mean difference from PBO (CFB) ([1]; 80 mg, Week 52): 0.05 ng/L
- FT3, LS mean CFB ([1]; 80 mg, Week 52): -0.01 ng/L
- FT3, LS mean difference from PBO (CFB) ([1]; 80 mg, Week 52): 0.02 ng/L
- FT3/rT3 (not on thyroxine), LS mean CFB ([1]; 80 mg, Week 52): 0.06
- FT3/rT3 (not on thyroxine), LS mean difference from PBO (CFB) ([1]; 80 mg, Week 52): 0.06
- FT3/rT3 (thyroxine-treated), LS mean CFB ([1]; 80 mg, Week 52): 0.05
- FT3/rT3 (thyroxine-treated), LS mean difference from PBO (CFB) ([1]; 80 mg, Week 52): 0.06
- FT3/rT3, LS mean difference from PBO (CFB) ([1]; 80 mg, Week 52): 0.06
- FT4 (not on thyroxine), LS mean % CFB ([1]; 80 mg, Week 52): −13.8%
- FT4 (not on thyroxine), LS mean CFB ([1]; 80 mg, Week 52): 0.16 ng/dL
- FT4 (not on thyroxine), LS mean difference from PBO (% CFB) ([1]; 80 mg, Week 52): −16.3%
- FT4 (not on thyroxine), LS mean difference from PBO (CFB) ([1]; 80 mg, Week 52): -0.18 ng/dL
- FT4 (thyroxine-treated), LS mean % CFB ([1]; 80 mg, Week 52): −14.0%
- FT4 (thyroxine-treated), LS mean CFB ([1]; 80 mg, Week 52): 0.18 ng/dL
- FT4 (thyroxine-treated), LS mean difference from PBO (% CFB) ([1]; 80 mg, Week 52): −17.9%
- FT4 (thyroxine-treated), LS mean difference from PBO (CFB) ([1]; 80 mg, Week 52): -0.21 ng/dL
- FT4, LS mean % CFB ([1]; 80 mg, Week 52): 13.9%
- FT4, LS mean CFB ([1]; 80 mg, Week 52): -0.17 ng/dL
- FT4, LS mean difference from PBO (% CFB) ([1]; 80 mg, Week 52): −16.6%
- FT4, LS mean difference from PBO (CFB) ([1]; 80 mg, Week 52): -0.19 ng/dL
- TBG (not on thyroxine), LS mean CFB ([1]; 80 mg, Week 52): 0.19 mg/L
- TBG (not on thyroxine), LS mean difference from PBO (CFB) ([1]; 80 mg, Week 52): -1.8 mg/L
- TBG (thyroxine-treated), LS mean CFB ([1]; 80 mg, Week 52): 1.1 mg/L
- TBG (thyroxine-treated), LS mean difference from PBO (CFB) ([1]; 80 mg, Week 52): -2.6 mg/L
- TBG, LS mean CFB ([1]; 80 mg, Week 52): -0.32 mg/L
- TBG, LS mean difference from PBO (CFB) ([1]; 80 mg, Week 52): -1.9 mg/L
- TSH (not on thyroxine), LS mean CFB ([1]; 80 mg, Week 52): −0.23 mIU/L
- TSH (not on thyroxine), LS mean difference from PBO (CFB) ([1]; 80 mg, Week 52): −0.15 mIU/L
- TSH (thyroxine-treated), LS mean CFB ([1]; 80 mg, Week 52): −0.63 mIU/L
- TSH (thyroxine-treated), LS mean difference from PBO (CFB) ([1]; 80 mg, Week 52): −0.41 mIU/L
- TSH, LS mean CFB ([1]; 80 mg, Week 52): −0.28 mIU/L
- TSH, LS mean difference from PBO (CFB) ([1]; 80 mg, Week 52): −0.18 mIU/L
- rT3 (not on thyroxine), LS mean CFB ([1]; 80 mg, Week 52): -4.5 ng/dL
- rT3 (not on thyroxine), LS mean difference from PBO (CFB) ([1]; 80 mg, Week 52): -4.5 ng/dL
- rT3 (thyroxine-treated), LS mean CFB ([1]; 80 mg, Week 52): -5.1 ng/dL
- rT3 (thyroxine-treated), LS mean difference from PBO (CFB) ([1]; 80 mg, Week 52): 5.1 ng/dL
- rT3, LS mean CFB ([1]; 80 mg, Week 52): -4.6 ng/dL
- rT3, LS mean difference from PBO (CFB) ([1]; 80 mg, Week 52): -4.73 ng/dL
- rT3, LS mean CFB ([1]; 80 mg, week 52): 4.6 ng/dL
- rT3, LS mean CFB difference from PBO ([1]; 80 mg, week 52): -4.7 ng/dL
- FT3 (not on thyroxine), LS mean CFB ([1]; 100 mg, Week 52): -0.08 ng/L
- FT3 (not on thyroxine), LS mean difference from PBO (CFB) ([1]; 100 mg, Week 52): -0.06 ng/L
- FT3 (thyroxine-treated), LS mean CFB ([1]; 100 mg, Week 52): -0.03 ng/L
- FT3 (thyroxine-treated), LS mean difference from PBO (CFB) ([1]; 100 mg, Week 52): 0.01 ng/L
- FT3, LS mean CFB ([1]; 100 mg, Week 52): 0.08 ng/L
- FT3, LS mean difference from PBO (CFB) ([1]; 100 mg, Week 52): -0.05 ng/L
- FT3/rT3 (not on thyroxine), LS mean CFB ([1]; 100 mg, Week 52): 0.06
- FT3/rT3 (not on thyroxine), LS mean difference from PBO (CFB) ([1]; 100 mg, Week 52): 0.07
- FT3/rT3 (thyroxine-treated), LS mean CFB ([1]; 100 mg, Week 52): 0.06
- FT3/rT3 (thyroxine-treated), LS mean difference from PBO (CFB) ([1]; 100 mg, Week 52): 0.06
- FT3/rT3, LS mean difference from PBO (CFB) ([1]; 100 mg, Week 52): 0.07
- FT4 (not on thyroxine), LS mean % CFB ([1]; 100 mg, Week 52): −17.6%
- FT4 (not on thyroxine), LS mean CFB ([1]; 100 mg, Week 52): -0.21 ng/dL
- FT4 (not on thyroxine), LS mean difference from PBO (% CFB) ([1]; 100 mg, Week 52): 20.0%
- FT4 (not on thyroxine), LS mean difference from PBO (CFB) ([1]; 100 mg, Week 52): -0.23 ng/dL
- FT4 (thyroxine-treated), LS mean % CFB ([1]; 100 mg, Week 52): 20.6%
- FT4 (thyroxine-treated), LS mean CFB ([1]; 100 mg, Week 52): -0.26 ng/dL
- FT4 (thyroxine-treated), LS mean difference from PBO (% CFB) ([1]; 100 mg, Week 52): −24.4%
- FT4 (thyroxine-treated), LS mean difference from PBO (CFB) ([1]; 100 mg, Week 52): 0.29 ng/dL
- FT4, LS mean % CFB ([1]; 100 mg, Week 52): −18.1%
- FT4, LS mean CFB ([1]; 100 mg, Week 52): -0.22 ng/dL
- FT4, LS mean difference from PBO (% CFB) ([1]; 100 mg, Week 52): 20.7%
- FT4, LS mean difference from PBO (CFB) ([1]; 100 mg, Week 52): -0.24 ng/dL
- TBG (not on thyroxine), LS mean CFB ([1]; 100 mg, Week 52): 0.21 mg/L
- TBG (not on thyroxine), LS mean difference from PBO (CFB) ([1]; 100 mg, Week 52): 1.8 mg/L
- TBG (thyroxine-treated), LS mean CFB ([1]; 100 mg, Week 52): 3.1 mg/L
- TBG (thyroxine-treated), LS mean difference from PBO (CFB) ([1]; 100 mg, Week 52): 4.6 mg/L
- TBG, LS mean CFB ([1]; 100 mg, Week 52): -0.60 mg/L
- TBG, LS mean difference from PBO (CFB) ([1]; 100 mg, Week 52): -2.2 mg/L
- TSH (not on thyroxine), LS mean CFB ([1]; 100 mg, Week 52): −0.20 mIU/L
- TSH (not on thyroxine), LS mean difference from PBO (CFB) ([1]; 100 mg, Week 52): −0.12 mIU/L
- TSH (thyroxine-treated), LS mean CFB ([1]; 100 mg, Week 52): −0.13 mIU/L
- TSH (thyroxine-treated), LS mean difference from PBO (CFB) ([1]; 100 mg, Week 52): 0.09 mIU/L
- TSH, LS mean CFB ([1]; 100 mg, Week 52): −0.20 mIU/L
- TSH, LS mean difference from PBO (CFB) ([1]; 100 mg, Week 52): 0.10 mIU/L
- rT3 (not on thyroxine), LS mean CFB ([1]; 100 mg, Week 52): 4.9 ng/dL
- rT3 (not on thyroxine), LS mean difference from PBO (CFB) ([1]; 100 mg, Week 52): -5.1 ng/dL
- rT3 (thyroxine-treated), LS mean CFB ([1]; 100 mg, Week 52): -6.3 ng/dL
- rT3 (thyroxine-treated), LS mean difference from PBO (CFB) ([1]; 100 mg, Week 52): -6.3 ng/dL
- rT3, LS mean CFB ([1]; 100 mg, Week 52): 5.1 ng/dL
- rT3, LS mean difference from PBO (CFB) ([1]; 100 mg, Week 52): -5.2 ng/dL
- rT3, LS mean CFB ([1]; 100 mg, week 52): 5.1 ng/dL
- rT3, LS mean CFB difference from PBO ([1]; 100 mg, week 52): 5.2 ng/dL
- effect on levels of thyrotropin or free triiodothyronine (FT3) ([1]; in vivo): no effect
- reduction of prohormone free T4 (FT4) levels ([1]; independent of thyroxine-replacement status): 16 to 19%
- total qFibrosis scores (NASH liver fibrosis): highly significant improvement in fibrosis
